For assay [1], the target named is TetR (Escherichia coli, UniProt P04483). In kind it is cell-based. The following applies: high-copy plasmid, LB, 37°C; extracellular inducer; induction (derepression); lumped parameter of uptake, DNA binding and Kd, not a pure affinity; read-out: Half maximal parameter.
Assay [2] deals with T1, CdaR (Escherichia coli, UniProt P37047).
T1 sequence (P37047 1-385): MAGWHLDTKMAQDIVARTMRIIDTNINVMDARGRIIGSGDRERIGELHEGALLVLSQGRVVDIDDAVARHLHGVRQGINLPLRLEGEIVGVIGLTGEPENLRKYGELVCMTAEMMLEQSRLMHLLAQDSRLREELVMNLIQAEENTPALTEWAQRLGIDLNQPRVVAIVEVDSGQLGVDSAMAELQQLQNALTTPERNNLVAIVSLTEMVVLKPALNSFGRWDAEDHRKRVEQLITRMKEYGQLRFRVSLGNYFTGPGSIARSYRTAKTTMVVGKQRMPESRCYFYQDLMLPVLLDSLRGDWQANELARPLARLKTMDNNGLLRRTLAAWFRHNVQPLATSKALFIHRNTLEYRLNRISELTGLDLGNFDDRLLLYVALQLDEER
In kind it is cell-based. The following applies: high-copy plasmid, LB, 37°C; extracellular inducer; activation; lumped parameter of uptake, DNA binding and Kd, not a pure affinity; read-out: Half maximal parameter.

Structures are written as SMILES.

Sequence of TetR (P04483 whole entry, looked up): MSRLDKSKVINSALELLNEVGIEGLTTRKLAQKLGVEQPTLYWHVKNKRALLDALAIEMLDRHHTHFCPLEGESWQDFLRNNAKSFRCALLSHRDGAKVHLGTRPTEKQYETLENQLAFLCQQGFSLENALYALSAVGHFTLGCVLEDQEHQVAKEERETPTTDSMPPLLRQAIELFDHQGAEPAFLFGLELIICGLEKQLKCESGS

For the compound `Cc1c2c(c(O)c3c(O)cccc13)C(=O)[C@]1(O)C(=O)C(C(N)=O)=C(O)[C@@H](N(C)C)[C@@H]1C2` [anhydrotetracycline], the EC50 in assay [1] stood at 0.081 ± 0.001 µM.

For the compound `O=C(O)[C@@H](O)[C@@H](O)[C@H](O)[C@@H](O)C(=O)O` [glucarate], the EC50 in assay [2] came out at 490 ± 60 µM.
